Key:
[1] = test system: Ecol 35218; test: Plate count of live bacteria after killing treatment; type: cell-based, E. coli
[2] = test system: Paer 27853; test: as above; type: cell-based, P. aeruginosa
[3] = test system: Saur 12600; test: as above; type: cell-based, S. aureus
[4] = test system: Paer 27853; test: FISH detection of live and killed bacteria with or without protease digestion; type: cell-based, P. aeruginosa
[5] = test system: Ecol 35218; test: as above; type: cell-based, E. coli
[6] = test system: Saur 12600; test: as above; type: cell-based, S. aureus
[7] = test system: Kpne 13882; test: Plate count of live bacteria after killing treatment
[8] = test system: Kpne 13882; test: FISH detection of live and killed bacteria with or without protease digestion; type: cell-based, K. pneumoniae
[9] = test system: E. coli; test: Protease-dependent bacterial growth inhibition in rapid blood culture (plating); type: cell-based; details: for Overall rate / Fold Growth: 6 hour run; for Fold Growth: over starting number
Description: Blood culture samples were treated with two different concentrations of protease to determine if protease used at a high concentration could produce inhibition of bacterial growth. Identification of a protease concentration dependent inhibitory effect on the growth rate of microbial cells is an important component of optimization of a rapid blood culture method. Growth of E. coli in simulated bacteremic blood cultures treated with a working protease concentration (0.2 mg/mL) and high protease concentration (20 mg/mL) was compared over a six (6) hour growth and digestion period.
A mock blood culture specimen was created by addition of 10 mL of blood to a BioMerieux BacT/Alert Standard Aerobic bottle. A 1.0 mL portion of this specimen was used for each condition. Each sample was treated with saponin to a final concentration of 4 mg/mL and SPS to a final concentration of 0.96 mg/mL. Samples were then spiked with E. coli bacteria to a final concentration of 1×10^2 cfu/mL. The samples were treated with a Pronase solution containing either 0.2 mg/mL or 20 mg/mL. Samples were incubated at 35° C. with agitation for 6 hours. A portion of each sample was removed for concentration determination at 2 hour time points during the incubation. The sampled bacteria were plated in 10-fold dilution series to determine the concentration of bacteria at each time point. Interval-by-interval growth rates, overall growth rate, and fold increase versus the starting concentration were determined using the calculated concentrations at each time point.

[10] = 0 hr, after gentamycin 100 micrograms per mL 1 hour or 80% ethanol
[11] = gentamycin 1 hour or 80% ethanol
[12] = 1 hour, with protease (0.2 mg/mL Pronase)
[13] = 1 hour, with protease (0.2 mg/mL Pronase), cells live or pre-killed as labelled
[14] = 4 hour, with protease (0.2 mg/mL Pronase)
[15] = 4 hour, with protease (0.2 mg/mL Pronase), cells live or pre-killed as labelled
[16] = High protease (20 mg/mL Pronase)
[17] = Low protease (0.2 mg/mL Pronase)

## CCO [Ethanol, ethanol]
[1]; [10]
  Conc of live bacteria by plating: <10 cfu/mL
[1]; [11]
  Killing by plating, in words: no viable cells
[2]; [10]
  Conc of live bacteria by plating: <10 cfu/mL
[2]; [11]
  Killing by plating, in words: no viable cells
[3]; [10]
  Conc of live bacteria by plating: <10 cfu/mL
[3]; [11]
  Killing by plating, in words: no viable cells
[4]; 1 hour, no protease
  FISH Conc: 3.0 × 10^5 cells/mL
  Positive Detection?: Yes (A detection threshold of 1×10^4 cells per mL was used as the threshold for a positive call in the FISH assay)
[4]; [12]
  Positive Detection?: No (A detection threshold of 1×10^4 cells per mL was used as the threshold for a positive call in the FISH assay)
[4]; [13]
  FISH Conc: 6.7 × 10^3 cells/mL
[4]; 4 hour, no protease
  FISH Conc: 1.3 × 10^5 cells/mL
  Positive Detection?: Yes (A detection threshold of 1×10^4 cells per mL was used as the threshold for a positive call in the FISH assay)
[4]; [14]
  Positive Detection?: No (A detection threshold of 1×10^4 cells per mL was used as the threshold for a positive call in the FISH assay)
[4]; [15]
  FISH Conc: <1 × 10^3 cells/mL
[5]; 1 hour, no protease
  FISH Conc: 4.3 × 10^4 cells/mL
  Positive Detection?: Yes (A detection threshold of 1×10^4 cells per mL was used as the threshold for a positive call in the FISH assay)
[5]; [12]
  Positive Detection?: No (A detection threshold of 1×10^4 cells per mL was used as the threshold for a positive call in the FISH assay)
[5]; [13]
  FISH Conc: 3.3 × 10^3 cells/mL
[5]; 4 hour, no protease
  FISH Conc: 3.7 × 10^4 cells/mL
  Positive Detection?: Yes (A detection threshold of 1×10^4 cells per mL was used as the threshold for a positive call in the FISH assay)
[5]; [14]
  Positive Detection?: No (A detection threshold of 1×10^4 cells per mL was used as the threshold for a positive call in the FISH assay)
[5]; [15]
  FISH Conc: 6.7 × 10^3 cells/mL
[6]; 1 hour, no protease
  FISH Conc: 3.4 × 10^5 cells/mL
  Positive Detection?: Yes (A detection threshold of 1×10^4 cells per mL was used as the threshold for a positive call in the FISH assay)
[6]; [12]
  Positive Detection?: Yes (A detection threshold of 1×10^4 cells per mL was used as the threshold for a positive call in the FISH assay)
[6]; [13]
  FISH Conc: 2.5 × 10^5 cells/mL
[6]; 4 hour, no protease
  FISH Conc: 1.9 × 10^5 cells/mL
  Positive Detection?: Yes (A detection threshold of 1×10^4 cells per mL was used as the threshold for a positive call in the FISH assay)
[6]; [14]
  Positive Detection?: Yes (A detection threshold of 1×10^4 cells per mL was used as the threshold for a positive call in the FISH assay)
[6]; [15]
  FISH Conc: 1.2 × 10^5 cells/mL
[7]; [10]
  Conc of live bacteria by plating: <10 cfu/mL
[7]; [11]
  Killing by plating, in words: no viable cells
[8]; 1 hour, no protease
  FISH Conc: 4.9 × 10^5 cells/mL
  Positive Detection?: Yes (A detection threshold of 1×10^4 cells per mL was used as the threshold for a positive call in the FISH assay)
[8]; [12]
  Positive Detection?: Yes (A detection threshold of 1×10^4 cells per mL was used as the threshold for a positive call in the FISH assay)
[8]; [13]
  FISH Conc: 6.8 × 10^5 cells/mL
[8]; 4 hour, no protease
  FISH Conc: 4.1 × 10^5 cells/mL
  Positive Detection?: Yes (A detection threshold of 1×10^4 cells per mL was used as the threshold for a positive call in the FISH assay)
[8]; [14]
  Positive Detection?: Yes (A detection threshold of 1×10^4 cells per mL was used as the threshold for a positive call in the FISH assay)
[8]; [15]
  FISH Conc: 2.8 × 10^5 cells/mL

## Pronase [Protease]
[4]; [12]
  Positive Detection?: Yes (A detection threshold of 1×10^4 cells per mL was used as the threshold for a positive call in the FISH assay)
[4]; [13]
  FISH Conc: 9.0 × 10^4 cells/mL
[4]; [14]
  Positive Detection?: Yes (A detection threshold of 1×10^4 cells per mL was used as the threshold for a positive call in the FISH assay)
[4]; [15]
  FISH Conc: 5.9 × 10^6 cells/mL
[5]; [12]
  Positive Detection?: Yes (A detection threshold of 1×10^4 cells per mL was used as the threshold for a positive call in the FISH assay)
[5]; [13]
  FISH Conc: 2.3 × 10^6 cells/mL
[5]; [14]
  Positive Detection?: Yes (A detection threshold of 1×10^4 cells per mL was used as the threshold for a positive call in the FISH assay)
[5]; [15]
  FISH Conc: 1.8 × 10^7 cells/mL
[9]; 20 mg/mL versus 0.2 mg/mL, 6 hour incubation
  lower overall increase with the higher concentration of protease: approximately 8.5 fold
[9]; [16]
  Calculated growth rate 0→2 Hours: 0.70
  Calculated growth rate 2→4 Hours: 2.74
  Calculated growth rate 4→6 Hours: 2.22
  Overall rate: 1.89
  Fold Growth: 2,600
[9]; High protease (20 mg/mL Pronase), 2 hr
  Conc of bacteria: 2.7 × 10^2 cfu/mL
[9]; High protease (20 mg/mL Pronase), 4 hr
  Conc of bacteria: 1.2 × 10^4 cfu/mL
[9]; High protease (20 mg/mL Pronase), 6 hr
  Conc of bacteria: 2.6 × 10^5 cfu/mL
[9]; [17]
  Calculated growth rate 0→2 Hours: 0.60
  Calculated growth rate 2→4 Hours: 2.96
  Calculated growth rate 4→6 Hours: 3.65
  Overall rate: 2.40
  Fold Growth: 22,000
[9]; Low protease (0.2 mg/mL Pronase), 2 hr
  Conc of bacteria: 2.3 × 10^2 cfu/mL
[9]; Low protease (0.2 mg/mL Pronase), 4 hr
  Conc of bacteria: 1.4 × 10^4 cfu/mL
[9]; Low protease (0.2 mg/mL Pronase), 6 hr
  Conc of bacteria: 2.2 × 10^6 cfu/mL
[6]; [12]
  Positive Detection?: Yes (A detection threshold of 1×10^4 cells per mL was used as the threshold for a positive call in the FISH assay)
[6]; [13]
  FISH Conc: 1.6 × 10^6 cells/mL
[6]; [14]
  Positive Detection?: Yes (A detection threshold of 1×10^4 cells per mL was used as the threshold for a positive call in the FISH assay)
[6]; [15]
  FISH Conc: 4.2 × 10^7 cells/mL
[8]; [12]
  Positive Detection?: Yes (A detection threshold of 1×10^4 cells per mL was used as the threshold for a positive call in the FISH assay)
[8]; [13]
  FISH Conc: 7.7 × 10^4 cells/mL
[8]; [14]
  Positive Detection?: Yes (A detection threshold of 1×10^4 cells per mL was used as the threshold for a positive call in the FISH assay)
[8]; [15]
  FISH Conc: 4.3 × 10^6 cells/mL

From US20150225762A1, “SAME-DAY BLOOD CULTURE WITH DIGITAL MICROSCOPY” (ACCELERATE DIAGNOSTICS, INC., priority 2012, published 2015)
